ChEMBL document CHEMBL4330134, “Design, synthesis, and bioevaluation of a novel class of (E)-4-oxo-crotonamide derivatives as potent antituberculosis agents” (Bioorg Med Chem Lett, 2019)
In brackets after ≈: the same amount, converted by molar mass.

System: Mycobacterium tuberculosis
Assay: Antimycobacterial activity against Mycobacterium tuberculosis H37Rv ATCC 27294 after 4 days by microplate Alamar blue assay
Assay type: functional
Settings: H37Rv ATCC 27294, 96 h

Structure (SMILES)	MIC
COc1ccccc1C(=O)/C=C/C(=O)N(C)C	0.92 µg/mL (≈ 3.94 µM)
CCCN(CCC)C(=O)/C=C/C(=O)c1ccc(Cl)cc1	1.67 µg/mL (≈ 5.68 µM)
CCOC(=O)/C=C/C(=O)c1ccccc1OC	1.82 µg/mL (≈ 7.77 µM)
CC(C)OC(=O)/C=C/C(=O)c1ccc(Oc2ccccc2)cc1	1.69 µg/mL (≈ 5.45 µM)
CC(C)OC(=O)/C=C/C(=O)c1ccc(Cl)cc1Cl	1.01 µg/mL (≈ 3.52 µM)
CCCN(CCC)C(=O)/C=C/C(=O)c1cccc(F)c1	0.96 µg/mL (≈ 3.46 µM)
CCOC(=O)/C=C/C(=O)C1CCCCC1	> 4 µg/mL
CCOc1ccc(C(=O)/C=C/C(=O)OC)cc1	0.41 µg/mL (≈ 1.75 µM)
CN(C)C(=O)/C=C/C(=O)c1cccc(Cl)c1	0.89 µg/mL (≈ 3.74 µM)
CC(C)(C)OC(=O)NCCOC(=O)/C=C/C(=O)c1ccc2c(c1)OCO2	> 4 µg/mL
CC(C)OC(=O)/C=C/C(=O)c1cccc2ccccc12	0.69 µg/mL (≈ 2.57 µM)
CCOC(=O)/C=C/C(=O)c1ccc(C)cc1	> 4 µg/mL
CCOC(=O)/C=C/C(=O)c1ccco1	1.09 µg/mL (≈ 5.61 µM)
COC(=O)/C=C/C(C)=O	0.86 µg/mL (≈ 6.71 µM)
CN(C)C(=O)/C=C/C(=O)c1cccc(Br)c1	0.96 µg/mL (≈ 3.4 µM)
CC(C)(C)OC(=O)NCCOC(=O)/C=C/C(=O)c1ccco1	> 4 µg/mL
CC(C)(C)OC(=O)NCCOC(=O)/C=C/C(=O)C1CC1	1.45 µg/mL (≈ 5.12 µM)
CCN(C)C(=O)/C=C/C(=O)c1ccc2c(c1)OCO2	> 2 µg/mL
O=C(O)/C=C/C(=O)c1ccc(-c2ccccc2)cc1	> 4 µg/mL
CN(C)C(=O)/C=C/C(=O)c1ccc(Cl)cc1Cl	0.41 µg/mL (≈ 1.51 µM)
COc1cccc(C(=O)/C=C/C(=O)OCCNC(=O)OC(C)(C)C)c1	> 4 µg/mL
COc1ccc(OC)c(C(=O)/C=C/C(=O)OC(C)C)c1	1.48 µg/mL (≈ 5.32 µM)
COc1ccc(C(=O)/C=C/C(=O)O)cc1	> 4 µg/mL

Structure (SMILES)	MIC
CCOc1ccc(C(=O)/C=C/C(=O)O)cc1	> 4 µg/mL
CCN(C)C(=O)/C=C/C(=O)c1ccc(OC)cc1	0.93 µg/mL (≈ 3.76 µM)
COc1ccc(C(=O)/C=C/C(=O)OCCNC(=O)OC(C)(C)C)cc1	> 4 µg/mL
O=C(O)/C=C/C(=O)C1CC1	> 4 µg/mL
CCOC(=O)/C=C/C(=O)c1ccc2c(c1)CCO2	0.94 µg/mL (≈ 3.82 µM)
COC(=O)/C=C/C(=O)c1cccc2ccccc12	0.45 µg/mL (≈ 1.87 µM)
CCCN(CCC)C(=O)/C=C/C(=O)c1cccc(Cl)c1	1.91 µg/mL (≈ 6.5 µM)
CCOC(=O)/C=C/C(=O)c1cccc(OC)c1	0.82 µg/mL (≈ 3.5 µM)
CC(C)(C)OC(=O)NCCOC(=O)/C=C/C(=O)c1ccccc1	> 4 µg/mL
CCOC(=O)/C=C/C(=O)c1ccc(Cl)cc1Cl	1.09 µg/mL (≈ 3.99 µM)
CCN(C)C(=O)/C=C/C(=O)c1cccc(Cl)c1	0.97 µg/mL (≈ 3.85 µM)
CCOC(=O)/C=C/C(=O)c1cccc2ccccc12	0.61 µg/mL (≈ 2.4 µM)
CCOC(=O)/C=C/C(=O)c1ccc(Oc2ccccc2)cc1	1.52 µg/mL (≈ 5.13 µM)
CCCN(CCC)C(=O)/C=C/C(=O)c1ccc(Cl)c(Cl)c1	0.88 µg/mL (≈ 2.68 µM)
CCOc1ccc(C(=O)/C=C/C(=O)OC(C)C)cc1	0.47 µg/mL (≈ 1.79 µM)
COc1ccc(OC)c(C(=O)/C=C/C(=O)OCCNC(=O)OC(C)(C)C)c1	> 4 µg/mL
CCCN(CCC)C(=O)/C=C/C(=O)c1ccc(F)cc1	0.95 µg/mL (≈ 3.43 µM)
COc1ccccc1C(=O)/C=C/C(=O)OCCNC(=O)OC(C)(C)C	> 4 µg/mL
CCCN(CCC)C(=O)/C=C/C(=O)c1cccc([N+](=O)[O-])c1	> 2 µg/mL
COc1ccc(C(=O)/C=C/C(=O)O)cc1OC	> 4 µg/mL
COC(=O)/C=C/C(=O)c1ccc2c(c1)CCO2	0.84 µg/mL (≈ 3.62 µM)
CC(C)(C)OC(=O)NCCOC(=O)/C=C/C(=O)c1ccc([N+](=O)[O-])cc1	> 4 µg/mL
COC(=O)/C=C/C(=O)c1ccc2c(c1)OCO2	0.38 µg/mL (≈ 1.62 µM)

Structure (SMILES)	MIC
CCN(C)C(=O)/C=C/C(=O)c1ccccc1OC	0.95 µg/mL (≈ 3.84 µM)
CC(C)OC(=O)/C=C/C(=O)C1CCCCC1	> 4 µg/mL
CN(C)C(=O)/C=C/C(=O)c1ccc2c(c1)OCO2	0.79 µg/mL (≈ 3.2 µM)
COC(=O)/C=C/C(=O)c1ccc(-c2ccccc2)cc1	0.2 µg/mL (≈ 0.751 µM)
CCN(C)C(=O)/C=C/C(=O)c1ccccc1F	0.24 µg/mL (≈ 1.02 µM)
CC(C)OC(=O)/C=C/C(=O)c1ccc(OCc2ccccc2)cc1	1.14 µg/mL (≈ 3.51 µM)
COC(=O)/C=C/C(=O)c1ccccc1	0.86 µg/mL (≈ 4.52 µM)
CCOC(=O)/C=C/C(=O)c1ccc([N+](=O)[O-])cc1	0.48 µg/mL (≈ 1.93 µM)
NNC(=O)c1ccncc1 [ISONIAZID]	0.025 µg/mL (≈ 0.182 µM)
CCN(C)C(=O)/C=C/C(=O)c1ccccc1Cl	0.65 µg/mL (≈ 2.58 µM)
CCOC(=O)/C=C/C(=O)c1ccc(OC)cc1	0.46 µg/mL (≈ 1.96 µM)
CC(C)OC(=O)/C=C/C(=O)c1ccc2c(c1)OCO2	0.87 µg/mL (≈ 3.32 µM)
CN(C)C(=O)/C=C/C(=O)c1cccc([N+](=O)[O-])c1	> 2 µg/mL
O=C(O)/C=C/C(=O)c1ccc2c(c1)OCO2	> 4 µg/mL
CCCN(CCC)C(=O)/C=C/C(=O)c1ccc(-c2ccccc2)cc1	1.4 µg/mL (≈ 4.17 µM)
CC(C)OC(=O)/C=C/C(=O)c1ccc(-c2ccccc2)cc1	0.24 µg/mL (≈ 0.815 µM)
CCN(C)C(=O)/C=C/C(=O)c1ccc(Cl)cc1	0.24 µg/mL (≈ 0.953 µM)
O=C(O)/C=C/C(=O)c1ccccc1	> 4 µg/mL
CC(C)(C)OC(=O)NCCOC(=O)/C=C/C(=O)c1ccc2c(c1)CCO2	> 4 µg/mL
CCCN(CCC)C(=O)/C=C/C(=O)c1cccc(Br)c1	> 2 µg/mL
COC(=O)/C=C/C(=O)c1ccccc1OC	0.99 µg/mL (≈ 4.5 µM)
O=C(O)/C=C/C(=O)c1ccco1	> 4 µg/mL
CCN(C)C(=O)/C=C/C(=O)c1ccc(Cl)cc1Cl	> 2 µg/mL

Structure (SMILES)	MIC
CCOC(=O)/C=C/C(=O)c1ccc(OC)c(OC)c1	0.82 µg/mL (≈ 3.1 µM)
CN(C)C(=O)/C=C/C(=O)c1cccc(F)c1	1.84 µg/mL (≈ 8.32 µM)
CCOC(=O)/C=C/C(=O)c1ccc2c(c1)OCO2	0.49 µg/mL (≈ 1.97 µM)
O=C(O)/C=C/C(=O)C1CCCCC1	> 4 µg/mL
CCN(C)C(=O)/C=C/C(=O)c1ccc(-c2ccccc2)cc1	0.49 µg/mL (≈ 1.67 µM)
COC(=O)/C=C/C(=O)c1ccc(OCc2ccccc2)cc1	0.67 µg/mL (≈ 2.26 µM)
COC(=O)/C=C/C(=O)c1cc(OC)ccc1OC	0.88 µg/mL (≈ 3.52 µM)
COC(=O)/C=C/C(=O)C1CC1	> 4 µg/mL
CCOC(=O)/C=C/C(=O)c1ccc(OCc2ccccc2)cc1	0.96 µg/mL (≈ 3.09 µM)
O=C(O)/C=C/C(=O)c1ccc([N+](=O)[O-])cc1	> 4 µg/mL
COc1ccc(OC)c(C(=O)/C=C/C(=O)O)c1	> 4 µg/mL
CCN(C)C(=O)/C=C/C(=O)c1ccc(Cl)c(Cl)c1	0.24 µg/mL (≈ 0.839 µM)
COC(=O)/C=C/C(=O)c1ccc(Oc2ccccc2)cc1	0.87 µg/mL (≈ 3.08 µM)
COc1ccc(C(=O)/C=C/C(=O)OC(C)C)cc1	1.64 µg/mL (≈ 6.61 µM)
CC(C)(C)OC(=O)NCCOC(=O)/C=C/C(=O)c1ccc(Br)cc1	> 4 µg/mL
COC(=O)/C=C/C(=O)c1ccc(Br)cc1	0.49 µg/mL (≈ 1.82 µM)
CCCN(CCC)C(=O)/C=C/C(=O)c1ccccc1OC	> 2 µg/mL
O=C(O)/C=C/C(=O)c1ccc(OCc2ccccc2)cc1	> 4 µg/mL
O=C(O)/C=C/C(=O)c1ccc2c(c1)CCO2	> 4 µg/mL
CC(=O)/C=C/C(=O)OC(C)C	2.5 µg/mL (≈ 16 µM)
CCCN(CCC)C(=O)/C=C/C(=O)c1ccccc1[N+](=O)[O-]	1.24 µg/mL (≈ 4.07 µM)
CCCN(CCC)C(=O)/C=C/C(=O)c1ccc(OC)cc1	1.89 µg/mL (≈ 6.53 µM)
CCCN(CCC)C(=O)/C=C/C(=O)c1cccc(C(F)(F)F)c1	> 2 µg/mL

Structure (SMILES)	MIC
CCN(C)C(=O)/C=C/C(=O)c1ccccc1[N+](=O)[O-]	0.24 µg/mL (≈ 0.915 µM)
CN(C)C(=O)/C=C/C(=O)c1ccc(Cl)c(Cl)c1	0.84 µg/mL (≈ 3.09 µM)
CN(C)C(=O)/C=C/C(=O)c1ccccc1F	0.95 µg/mL (≈ 4.29 µM)
CCCN(CCC)C(=O)/C=C/C(=O)c1ccc(OCC)cc1	1.91 µg/mL (≈ 6.3 µM)
CCOC(=O)/C=C/C(=O)c1ccc(-c2ccccc2)cc1	0.23 µg/mL (≈ 0.82 µM)
CC(=O)/C=C/C(=O)O	> 4 µg/mL
Cc1ccc(C(=O)/C=C/C(=O)OC(C)C)cc1	0.77 µg/mL (≈ 3.31 µM)
CC(C)(C)OC(=O)NCCOC(=O)/C=C/C(=O)C1CCCCC1	> 4 µg/mL
CC(C)(C)OC(=O)NCCOC(=O)/C=C/C(=O)c1ccc(OCc2ccccc2)cc1	1.91 µg/mL (≈ 4.49 µM)
CC(C)OC(=O)/C=C/C(=O)c1ccc2c(c1)CCO2	1.02 µg/mL (≈ 3.92 µM)
CCCN(CCC)C(=O)/C=C/C(=O)c1ccccc1Cl	> 2 µg/mL
CC(C)OC(=O)/C=C/C(=O)c1ccc([N+](=O)[O-])cc1	0.5 µg/mL (≈ 1.9 µM)
COc1ccc(C(=O)/C=C/C(=O)N(C)C)cc1	0.38 µg/mL (≈ 1.63 µM)
CCN(C)C(=O)/C=C/C(=O)c1cccc(C(F)(F)F)c1	> 2 µg/mL
CN(C)C(=O)/C=C/C(=O)c1ccc(F)cc1	0.47 µg/mL (≈ 2.12 µM)
CCN(C)C(=O)/C=C/C(=O)c1cccc(F)c1	0.48 µg/mL (≈ 2.04 µM)
CCOC(=O)/C=C/C(=O)c1ccccc1	0.82 µg/mL (≈ 4.02 µM)
COc1ccccc1C(=O)/C=C/C(=O)O	> 4 µg/mL
COc1ccc(C(=O)/C=C/C(=O)OC(C)C)cc1OC	1.94 µg/mL (≈ 6.97 µM)
COC(=O)/C=C/C(=O)c1ccc(C)cc1	0.37 µg/mL (≈ 1.81 µM)
CCOC(=O)/C=C/C(C)=O	3.51 µg/mL (≈ 24.7 µM)
CCN(C)C(=O)/C=C/C(=O)c1ccc([N+](=O)[O-])cc1	1.7 µg/mL (≈ 6.48 µM)
O=C(O)/C=C/C(=O)c1cccc2ccccc12	> 4 µg/mL

Structure (SMILES)	MIC
CCOc1ccc(C(=O)/C=C/C(=O)N(C)C)cc1	0.48 µg/mL (≈ 1.94 µM)
O=C(O)/C=C/C(=O)c1ccc(Br)cc1	> 4 µg/mL
CC(C)OC(=O)/C=C/C(=O)c1ccccc1	0.78 µg/mL (≈ 3.57 µM)
CC(C)(C)OC(=O)NCCOC(=O)/C=C/C(=O)c1cccc2ccccc12	> 4 µg/mL
COc1cccc(C(=O)/C=C/C(=O)OC(C)C)c1	0.92 µg/mL (≈ 3.71 µM)
CC(C)OC(=O)/C=C/C(=O)C1CC1	0.68 µg/mL (≈ 3.73 µM)
CCOC(=O)/C=C/C(=O)C1CC1	> 4 µg/mL
CCCN(CCC)C(=O)/C=C/C(=O)c1ccc([N+](=O)[O-])cc1	1.89 µg/mL (≈ 6.21 µM)
CC(=O)/C=C/C(=O)OCCNC(=O)OC(C)(C)C	> 4 µg/mL
CC(C)(C)OC(=O)NCCOC(=O)/C=C/C(=O)c1ccc(Oc2ccccc2)cc1	> 4 µg/mL
CCN(C)C(=O)/C=C/C(=O)c1ccc(F)cc1	0.25 µg/mL (≈ 1.06 µM)
CCOC(=O)/C=C/C(=O)c1ccc(OCC)cc1	0.54 µg/mL (≈ 2.17 µM)
COc1ccccc1C(=O)/C=C/C(=O)OC(C)C	1.91 µg/mL (≈ 7.69 µM)
COC(=O)/C=C/C(=O)c1ccc(OC)c(OC)c1	0.44 µg/mL (≈ 1.76 µM)
CC(C)(C)OC(=O)NCCOC(=O)/C=C/C(=O)c1ccc(-c2ccccc2)cc1	1.23 µg/mL (≈ 3.11 µM)
CCOc1ccc(C(=O)/C=C/C(=O)OCCNC(=O)OC(C)(C)C)cc1	1.45 µg/mL (≈ 3.99 µM)
CN(C)C(=O)/C=C/C(=O)c1ccc([N+](=O)[O-])cc1	0.93 µg/mL (≈ 3.75 µM)
CCN(C)C(=O)/C=C/C(=O)c1cccc(OC)c1	1.88 µg/mL (≈ 7.6 µM)
COC(=O)/C=C/C(=O)c1cccc(OC)c1	0.39 µg/mL (≈ 1.77 µM)
COC(=O)/C=C/C(=O)c1ccc([N+](=O)[O-])cc1	0.54 µg/mL (≈ 2.3 µM)
